From US9573930B2 (Quanticel Pharmaceuticals, Inc., priority 2014, dated 2017)

molecular target: full-length human LSD1 (Homo sapiens (Human), UniProt O60341); assay: In vitro enzyme inhibition assay LSD-1 (TR-FRET); assay type: biochemical; conditions: H3K4me1-biotin peptide
Protocol: This assay determines the ability of a test compound to inhibit LSD1 demethylase activity.
The enzymatic assay of LSD1 activity is based on Time Resolved-Fluorescence Resonance Energy Transfer (TR-FRET) detection.
The ability of the compounds disclosed herein to inhibit LSD1 activity was quantified and the respective IC50 value was determined.

| IC50 [nM] | Compound |
| --- | --- |
| < 100 | COc1ccc(-c2c(-c3ccc(C#N)c(F)c3)nc(N3CC[C@@H](N)[C@@H](F)C3)n(C)c2=O)cc1 [Example 78, 4-[2-((4R,3S)-4-amino-3-fluoro-piperidin-1-yl)-5-(4-methoxy-phenyl)-1-methyl-6-oxo-1,6-dihydro-pyrimidin-4-yl]-2-fluoro-benzonitrile] |
| < 100 | COc1ccc(-c2c(-c3ccc(C#N)c(F)c3)nc(N3CC[C@H](N)[C@H](F)C3)n(C)c2=O)cc1 [Example 79, 4-[2-((4S,3R)-4-amino-3-fluoro-piperidin-1-yl)-5-(4-methoxy-phenyl)-1-methyl-6-oxo-1,6-dihydro-pyrimidin-4-yl]-2-fluoro-benzonitrile] |
| < 100 | CN(C)C1CCN(c2nc(-c3ccc(C#N)c(F)c3)c(-c3ccc4cn(C)nc4c3)c(=O)n2C)CC1 [Example 80, 4-[2-(4-dimethylamino-piperidin-1-yl)-1-methyl-5-(2-methyl-2H-indazol-6-yl)-6-oxo-1,6-dihydro-pyrimidin-4-yl]-2-fluoro-benzonitrile] |
| < 100 | CN(C)c1ncc(-c2c(-c3ccc(C#N)c(F)c3)nc(N3CCC(N(C)C)CC3)n(C)c2=O)cn1 [Example 81, 4-[2′-dimethylamino-2-(4-dimethylamino-piperidin-1-yl)-1-methyl-6-oxo-1,6-dihydro-[5,5′]bipyrimidinyl-4-yl]-2-fluoro-benzonitrile] |
| < 100 | Cc1ccc(-c2c(-c3ccc(C#N)c(F)c3)nc(N3CCC(N(C)C)CC3)n(C)c2=O)cn1 [Example 82, 4-[2-(4-dimethylamino-piperidin-1-yl)-1-methyl-5-(6-methyl-pyridin-3-yl)-6-oxo-1,6-dihydro-pyrimidin-4-yl]-2-fluoro-benzonitrile] |
| < 100 | CNC1CCN(c2nc(-c3ccc(C#N)c(F)c3)c(-c3ccc(N(C)C)nc3)c(=O)n2C)CC1 [Example 83, 4-[5-(6-dimethylamino-pyridin-3-yl)-1-methyl-2-(4-methylamino-piperidin-1-yl)-6-oxo-1,6-dihydro-pyrimidin-4-yl]-2-fluoro-benzonitrile] |
| < 100 | CN(C)C1CCN(c2nc(-c3ccc(C#N)c(F)c3)c(-c3ccc4cn[nH]c4c3)c(=O)n2C)CC1 [Example 84, 4-[2-(4-dimethylamino-piperidin-1-yl)-5-(2H-indazol-6-yl)-1-methyl-6-oxo-1,6-dihydro-pyrimidin-4-yl]-2-fluoro-benzonitrile] |
| < 100 | CNC1CCN(c2nc(-c3ccc(C#N)c(F)c3)c(-c3ccc4c(cnn4C)c3)c(=O)n2C)CC1 [Example 87, 2-fluoro-4-[1-methyl-2-[4-(methylamino)piperidin-1-yl]-5-(1-methylindazol-5-yl)-6-oxopyrimidin-4-yl]benzonitrile] |
| < 100 | Cn1c(N2CCC(N)CC2)nc(-c2ccc(C#N)c(F)c2)c(-c2ccc3[nH]ncc3c2)c1=O [Example 88, 4-[2-(4-aminopiperidin-1-yl)-5-(1H-indazol-5-yl)-1-methyl-6-oxopyrimidin-4-yl]-2-fluorobenzonitrile] |
| < 100 | Cn1c(N2CCC(N)CC2)nc(-c2ccc(C#N)c(F)c2)c(-c2ccc(N)cc2)c1=O [Example 89, 4-[5-(4-aminophenyl)-2-(4-aminopiperidin-1-yl)-1-methyl-6-oxopyrimidin-4-yl]-2-fluorobenzonitrile] |
| < 100 | CNc1ccc(-c2c(-c3ccc(C#N)c(F)c3)nc(N3CCC(N)CC3)n(C)c2=O)cc1 [Example 90, 4-[2-(4-aminopiperidin-1-yl)-1-methyl-5-[4-(methylamino)phenyl]-6-oxopyrimidin-4-yl]-2-fluorobenzonitrile] |
| < 100 | CNc1ccc(-c2c(-c3ccc(C#N)c(F)c3)nc(N3CCC(N)CC3)n(C)c2=O)cc1F [Example 91, 4-[2-(4-aminopiperidin-1-yl)-5-[3-fluoro-4-(methylamino)phenyl]-1-methyl-6-oxopyrimidin-4-yl]-2-fluorobenzonitrile] |
| < 100 | COc1ccc(-c2c(-c3ccc(C#N)c(F)c3)nc(N3CCC(N(C)C)CC3)n(C)c2=O)cn1 [Example 92, 4-[2-[4-(dimethylamino)piperidin-1-yl]-5-(6-methoxypyridin-3-yl)-1-methyl-6-oxopyrimidin-4-yl]-2-fluorobenzonitrile] |
| < 100 | CCOc1ncc(-c2c(-c3ccc(C#N)c(F)c3)nc(N3CCC(N)CC3)n(C)c2=O)cc1F [Example 93, 4-[2-(4-aminopiperidin-1-yl)-5-(6-ethoxy-5-fluoropyridin-3-yl)-1-methyl-6-oxopyrimidin-4-yl]-2-fluorobenzonitrile] |
| < 100 | CCOc1ccc(-c2c(-c3ccc(C#N)c(F)c3)nc(N3CCC(N)CC3)n(C)c2=O)cn1 [Example 94, 4-[2-(4-aminopiperidin-1-yl)-5-(6-ethoxypyridin-3-yl)-1-methyl-6-oxopyrimidin-4-yl]-2-fluorobenzonitrile] |
| < 100 | CCOc1ccc(-c2c(-c3ccc(C#N)c(F)c3)nc(N3CCC(N)CC3)n(C)c2=O)cc1 [Example 95, 4-[2-(4-aminopiperidin-1-yl)-5-(4-ethoxyphenyl)-1-methyl-6-oxopyrimidin-4-yl]-2-fluorobenzonitrile] |

| IC50 [nM] | Compound |
| --- | --- |
| < 100 | Cn1c(N2CCC(N)CC2)nc(-c2ccc(C#N)cc2)c(-c2ccc(OCCO)cc2)c1=O [Example 97, 4-[2-(4-aminopiperidin-1-yl)-5-[4-(2-hydroxyethoxy)phenyl]-1-methyl-6-oxopyrimidin-4-yl]benzonitrile] |
| < 100 | COCCOc1ccc(-c2c(-c3ccc(C#N)c(F)c3)nc(N3CCC(N)CC3)n(C)c2=O)cc1 [Example 98, 4-[2-(4-aminopiperidin-1-yl)-5-[4-(2-methoxyethoxy)phenyl]-1-methyl-6-oxopyrimidin-4-yl]-2-fluorobenzonitrile] |
| < 100 | Cn1c(N2CCC(N)CC2)nc(-c2ccc(C#N)c(F)c2)c(-c2ccc(CCO)cc2)c1=O [Example 99, 4-[2-(4-aminopiperidin-1-yl)-5-[4-(2-hydroxyethyl)phenyl]-1-methyl-6-oxopyrimidin-4-yl]-2-fluorobenzonitrile] |
| < 100 | Cn1c(N2CCC(N)CC2)nc(-c2ccc(C#N)c(F)c2)c(-c2ccc(CO)cc2)c1=O [Example 100, 4-[2-(4-aminopiperidin-1-yl)-5-[4-(hydroxymethyl)phenyl]-1-methyl-6-oxopyrimidin-4-yl]-2-fluorobenzonitrile] |
| < 100 | Cn1c(N2CCC(N)CC2)nc(-c2ccc(C#N)c(F)c2)c(-c2ccc(F)cc2)c1=O [Example 101, 4-[2-(4-aminopiperidin-1-yl)-5-(4-fluorophenyl)-1-methyl-6-oxopyrimidin-4-yl]-2-fluorobenzonitrile] |
| < 100 | Cn1c(N2CCC(N)CC2)nc(-c2ccc(C#N)c(F)c2)c(-c2cccc(F)c2)c1=O [Example 102, 4-[2-(4-aminopiperidin-1-yl)-5-(3-fluorophenyl)-1-methyl-6-oxopyrimidin-4-yl]-2-fluorobenzonitrile] |
| < 100 | Cn1c(N2CCC(N)CC2)nc(-c2ccc(C#N)c(F)c2)c(-c2cc(F)cc(F)c2)c1=O [Example 103, 4-[2-(4-aminopiperidin-1-yl)-5-(3,5-difluorophenyl)-1-methyl-6-oxopyrimidin-4-yl]-2-fluorobenzonitrile] |
| < 100 | Cn1c(N2CCC(N)CC2)nc(-c2ccc(C#N)c(F)c2)c(-c2ccc(F)c(F)c2)c1=O [Example 104, 4-[2-(4-aminopiperidin-1-yl)-5-(3,4-difluorophenyl)-1-methyl-6-oxopyrimidin-4-yl]-2-fluorobenzonitrile] |
| < 100 | Cn1c(N2CCC(N)CC2)nc(-c2ccc(C#N)c(F)c2)c(-c2ccc(S(C)(=O)=O)cc2)c1=O [Example 105, 4-[2-(4-aminopiperidin-1-yl)-1-methyl-5-(4-methylsulfonylphenyl)-6-oxopyrimidin-4-yl]-2-fluorobenzonitrile] |
| < 100 | Cn1c(N2CCC(N)CC2)nc(-c2ccc(C#N)c(F)c2)c(-c2ccc(Cl)cc2)c1=O [Example 106, 4-[2-(4-aminopiperidin-1-yl)-5-(4-chlorophenyl)-1-methyl-6-oxopyrimidin-4-yl]-2-fluorobenzonitrile] |
| < 100 | COCc1ccc(-c2c(-c3ccc(C#N)c(F)c3)nc(N3CCC(N)CC3)n(C)c2=O)cc1 [Example 107, 4-[2-(4-aminopiperidin-1-yl)-5-[4-(methoxymethyl)phenyl]-1-methyl-6-oxopyrimidin-4-yl]-2-fluorobenzonitrile] |
| < 100 | Cn1c(N2CCC(N)CC2)nc(-c2ccc(C#N)c(F)c2)cc1=O [Example 108, 4-[2-(4-aminopiperidin-1-yl)-1-methyl-6-oxopyrimidin-4-yl]-2-fluorobenzonitrile] |
| < 100 | C#Cc1c(-c2ccc(C#N)c(F)c2)nc(N2CCC(N)CC2)n(C)c1=O [Example 110] |
| 100 to 1000 | COc1ccc(-c2c(-c3ccc(Cl)c(F)c3)nc(N3CCC(N)CC3)n(C)c2=O)cc1 [Example 111, 2-(4-amino-piperidin-1-yl)-6-(4-chloro-3-fluoro-phenyl)-5-(4-methoxy-phenyl)-3-methyl-3H-pyrimidin-4-one] |
| > 10000 | Cn1c(N2CCC(N)CC2)nc(-c2ccccc2)c(-c2ccc3c(ccn3C)c2)c1=O [Example 114, 2-(4-amino-piperidin-1-yl)-3-methyl-5-(1-methyl-1H-indol-5-yl)-6-phenyl-3H-pyrimidin-4-one] |
| 100 to 1000 | Cn1c(N2CCC(N)CC2)nc(-c2ccncc2)c(-c2ccc3c(ccn3C)c2)c1=O [Example 116, 2-(4-amino-piperidin-1-yl)-3-methyl-5-(1-methyl-1H-indol-5-yl)-6-pyridin-4-yl-3H-pyrimidin-4-one] |

| Compound | IC50 [nM] |
| --- | --- |
| N#Cc1ccc(-c2cc(=O)n(CC3CC3)c(N3CCC(N)CC3)n2)cc1F [Example 109, 4-[2-(4-amino-piperidin-1-yl)-1-cyclopropylmethyl-6-oxo-1,6-dihydro-pyrimidin-4-yl]-2-fluoro-benzonitrile] | 100 to 1000 |
| Cn1c(N2CCC(N)CC2)nc(-c2ccc(F)cc2)c(-c2ccc3c(ccn3C)c2)c1=O [Example 113, 2-(4-amino-piperidin-1-yl)-6-(4-fluoro-phenyl)-3-methyl-5-(1-methyl-1H-indol-5-yl)-3H-pyrimidin-4-one] | 100 to 1000 |
